Assay [1] relates to SMN protein in SMA patient fibroblast cells (GM03813). Nature of the assay: SMN protein assay (HTRF) in cultured cells. Format: cell-based. The conditions noted are these: Homo sapiens, SMA Type 1 patient fibroblasts, 48 hours; for EC (1.5-fold): concentration producing 1.5 times SMN protein vs vehicle, read-out: EC1.5x SMN protein; for maximal fold induction: relative to vehicle control, read-out: max. fold increase of SMN protein. On the procedure: The SMN HTRF (homogeneous time resolved fluorescence) assay is used to quantify the level of SMN protein in SMA patient fibroblast cells treated with test compounds. Materials used and respective sources are listed below in Table 4.
Cells are thawed and cultured in DMEM-10% FBS for 72 hours. Cells are trypsinized, counted and re-suspended to a concentration of 25,000 cells/mL in DMEM-10% FBS. The cell suspensions are plated at 5,000 cells per well in a 96 well microtiter plate and incubated for […]. […] 1 μL of test compound solution is transferred to cell-containing wells and cells are incubated for 48 hours in a cell culture incubator (37° C., 5% CO2, 100% relative humidity). Triplicate samples are set up for each test compound concentration. After 48 hours, the supernatant is removed from the wells and 25 μL of the RIPA lysis buffer, containing protease inhibitors, is added to the wells and incubated with shaking at room temperature for 1 hour. 25 μL of the diluent is added and then 35 μL of the resulting lysate is transferred to a 384-well plate, where each well contains 5 μL of the antibody solution (1:100 dilution of anti-SMN d2 and anti-SMN cryptate in SMN reconstitution buffer). The plate is centrifuged for 1 minute to bring the solution to the bottom of the wells, then incubated overnight at room temperature. Fluorescence for each well of the plate at 665 nm and 620 nm is measured on an EnVision multilabel plate reader (Perkin-Elmer).
The normalized fluorescence signal is calculated for each sample, Blank and vehicle control well by dividing the signal at 665 nm by the signal at 620 nm. Normalizing the signal accounts for possible fluorescence quenching due to the matrix effect of the lysate. The ΔF value (a measurement of SMN protein abundance as a percent value) for each sample well is calculated by subtracting the normalized average fluorescence for the Blank control wells from the normalized fluorescence for each sample well, then dividing this difference by the normalized average fluorescence for the Blank control wells and multiplying the resulting value by 100. The ΔF value for each sample well represents the SMN protein abundance from test compound-treated samples. The ΔF value for each sample well is divided by the ΔF value for the vehicle control wells to calculate the fold increase in SMN protein abundance relative to the vehicle control. Table 5 provides EC1-5× concentrations for SMN protein expression that was obtained from the 7-point concentration data generated according to the above procedure for particular compounds of the present invention.
Table 6 provides the maximum fold increase of SMN protein that was obtained from the 7-point concentration data generated according to the above procedure for particular compounds of the present invention
On the technique in general: TR-FRET usually uses a lanthanide donor and a delayed reading to cut background.

The subject of assay [2] is full length SMN2 minigene mRNA (HEK293H cells stably transfected with SMN2-A minigene). Nature of the assay: RT-qPCR assay for SMN2 minigene pre-mRNA splicing in cultured cells. Format: cell-based. Particulars: Homo sapiens, HEK293-H, 24 hours. A general note: Real-time PCR tracks product formation cycle by cycle.
Where [3] appears, read: Table 3 (title: production of full length SMN2 minigene mRNA), read-out: EC1.5x SMN protein.
Where [4] appears, read: concentration increasing full length SMN2 minigene mRNA 1.5-fold vs vehicle, read-out: EC1.5x minigene.

Like-named read-outs stand apart in the source and are kept apart here.

As to `Cc1nc2ccc(-c3cc(=O)n4cc(N5CCN(C6COC6)CC5)cc(C)c4n3)nn2n1` [Example 31, 9-methyl-7-[4-(oxetan-3-yl)piperazin-1-yl]-2-(2-methyl-[1,2,4]triazolo[1,5-b]pyridazin-6-yl)pyrido[1,2-a]pyrimidin-4-one], in assay [1], the EC (1.5-fold) came out at 1.31 µM and the maximal fold induction came out at 1.75. In addition, the EC (1.5-fold) in assay [2] (setting [3]) came out at 0.13 µM.

On to `Cc1nc2ccc(-c3cc(=O)n4cc(N5CCNC6(CC6)C5)ccc4n3)nn2n1` [Example 44, 7-(4,7-diazaspiro[2.5]octan-7-yl)-2-(2-methyl-[1,2,4]triazolo[1,5-b]pyridazin-6-yl)pyrido[1,2-a]pyrimidin-4-one], for which, in assay [1], the EC (1.5-fold) turned out to be 0.265 µM and the maximal fold induction amounted to 2.02. The EC (1.5-fold) in assay [2] (setting [3]) turned out to be 0.0578 µM.

Consider `Cc1nc2ccc(-c3cc(=O)n4cc(N5CC6(CN(C)C6)C5)ccc4n3)nn2n1` [Example 46, 7-(6-methyl-2,6-diazaspiro[3.3]heptan-2-yl)-2-(2-methyl-[1,2,4]triazolo[1,5-b]pyridazin-6-yl)pyrido[1,2-a]pyrimidin-4-one], for which, in assay [1], the EC (1.5-fold) stood at 0.0314 µM and the maximal fold induction was 1.75. For the same compound, the EC (1.5-fold) in assay [2] (setting [3]) worked out at 0.003 µM.

Turning to `Cc1nc2ccc(-c3cc(=O)n4cc(N5CCN[C@@H](C)C5)ccc4n3)nn2n1` [Example 18, 7-[(3S)-3-methylpiperazin-1-yl]-2-(2-methyl-[1,2,4]triazolo[1,5-b]pyridazin-6-yl)pyrido[1,2-a]pyrimidin-4-one], the EC (1.5-fold) was 0.0515 µM in assay [1] and 0.0176 µM in assay [2] (setting [3]). The maximal fold induction in assay [1] stood at 1.72.

On to `Cc1nc2ccc(-c3cc(=O)n4cc(N5CCNCC5)ccc4n3)nn2n1` [Example 19, 7-piperazin-1-yl-2-(2-methyl-[1,2,4]triazolo[1,5-b]pyridazin-6-yl)pyrido[1,2-a]pyrimidin-4-one], for which, in assay [1], the EC (1.5-fold) is 0.0392 µM and the maximal fold induction is 1.81. Also, the EC (1.5-fold) in assay [2] (setting [3]) was determined as 0.009 µM.

In the case of `Cc1nc2ncc(-c3cc(=O)n4cc(N5CCCN(C)CC5)ccc4n3)cn2n1` [Example 4, 7-(4-methyl-1,4-diazepan-1-yl)-2-(2-methyl-[1,2,4]triazolo[1,5-a]pyrimidin-6-yl)pyrido[1,2-a]pyrimidin-4-one], in assay [1], the EC (1.5-fold) worked out at 0.324 µM and the maximal fold induction was determined as 1.78. Moreover, in assay [2] (setting [4]), the EC (1.5-fold) stood at 0.1 µM.

Take `Cc1nc2ccc(-c3cc(=O)n4cc(N5CCNCC5)cc(C)c4n3)nn2n1` [Example 15, 9-methyl-7-piperazin-1-yl-2-(2-methyl-[1,2,4]triazolo[1,5-b]pyridazin-6-yl)pyrido[1,2-a]pyrimidin-4-one]: the EC (1.5-fold) in assay [1] and in assay [2] (setting [4]) was below 0.03 µM throughout. Also, the maximal fold induction in assay [1] came to 1.82.

`Cc1nc2ncc(-c3cc(=O)n4cc(N5CCN(C6CNC6)CC5)ccc4n3)cn2n1` [Example 10, 7-[4-(azetidin-3-yl)piperazin-1-yl]-2-(2-methyl-[1,2,4]triazolo[1,5-a]pyrimidin-6-yl)pyrido[1,2-a]pyrimidin-4-one]: the EC (1.5-fold) stood at 30 µM in assay [1] and 5.93 µM in assay [2] (setting [4]). The maximal fold induction in assay [1] was found to be 1.5.

In the case of `Cc1nc2ncc(-c3cc(=O)n4cc(N5CCN(C)CC5)ccc4n3)cn2n1` [Example 23, 7-(4-methylpiperazin-1-yl)-2-(2-methyl-[1,2,4]triazolo[1,5-a]pyrimidin-6-yl)pyrido[1,2-a]pyrimidin-4-one], the EC (1.5-fold) was found to be 0.477 µM in assay [1] and 0.0952 µM in assay [2] (setting [3]). Moreover, the maximal fold induction in assay [1] came out at 1.68.

Consider `Cc1nc2ccc(-c3cc(=O)n4cc(N5C[C@H](C)N[C@@H](C)C5)cc(C)c4n3)nn2n1` [Example 37, 7-[(3S,5S)-3,5-dimethylpiperazin-1-yl]-9-methyl-2-(2-methyl-[1,2,4]triazolo[1,5-b]pyridazin-6-yl)pyrido[1,2-a]pyrimidin-4-one], for which, in assay [1], the EC (1.5-fold) came out at 0.0337 µM and the maximal fold induction was 1.78. Further, the EC (1.5-fold) in assay [2] (setting [3]) was 0.0026 µM.

Values taken from patent US10208067B2, “Compounds for treating spinal muscular atrophy” (Hoffmann-La Roche Inc., priority 2015, dated 2019).
